“Also recorded” adds a separate entry of the source.
Columns and labels:
[1] = tested on: embryoid bodies from ES cells; test: Dorso-ventral progenitor marker expression in embryoid bodies; type: cell-based, mouse; conditions: 1 μM HhAg1.3, absence of RA
Method: (§1) Immunocytochemistry on ES cell-derived MNs and EBs was performed as previously described (Wichterle et al., 2002). Antibodies against the following proteins were used in the analysis during this study: Otx2, Hoxa5, Hoxc8, Hoxc6, Hoxc9, Hoxd9, Hoxd10, Foxp1, Lhx3, Pea3, Scip, NeuN, dsRed, NF.
To determine whether motor neuron progenitors are correctly specified at 1 μM concentrations of HhAg1.3 expression pattern of a series of DV progenitor markers were examined.
The endogenous Shh signaling centers have been identified as clusters of Foxa2+ cells expressing Shh (FIG. 2D).
Immunocytochemistry on dissociated ES-MNs and cryosectioned EBs was performed as previously described (Wichterle et al., 2002). In this study, the following antibodies were used: goat anti-Meis1 (Santa Cruz Biotechnology, SCB), mouse anti-Lhx3 (Developmental Studies Hybridoma Bank, DSHB), mouse anti-Lhx1/2 (DSHB), mouse anti-Nkx2.2 (DSHB), goat anti-Hoxc6 (SCB), rabbit anti-Hoxd9 (SCB), rabbit anti-Otx2 (kindly provided by G. Corte), mouse anti-Isl1 (DSHB), mouse anti-Hoxc 8 (DSHB), mouse anti-NeuN (Chemicon), rabbit anti-dsRed (Clontech), rabbit anti-Brachyury (SCB), mouse anti-Sonic Hedgehog (DSHB), mouse anti-FoxA2 (DSHB), mouse anti-Pax7 (DSHB), mouse anti-Hb9 (DSHB), guinea pig anti-Hb9 (kindly provided by the Project ALS laboratory). […]

Hb9-GFP ES cells [2] = conditions: MNs generated in the presence of RA (Wichterle et al., 2002); cited from earlier work
Hb9-GFP ES cells [3] = test: Efficiency of motor neuron specification (Hb9-GFP+ cells); type: cell-based, mouse
ES-MNs = test: Columnar and divisional identity of ES-MNs (FoxP1, Lhx3, Lhx1 immunostaining); type: cell-based, mouse
Method: (§2) For immunocytochemical analysis, embryonic bodies (EBs) were dissociated using 0.05% Trypsin-EDTA on Day 6 and plated at low densities on laminin coated coverslips using ADFNB medium supplemented with 10 ng/ml Glial cell-derived neurotrophic factor (GDNF). For quantification of MN subtypes, EBs were collected on Day 6 and dissociated using 0.05 Trypsin-EDTA. Dissociated cells were plated on laminin coated coverslips using ADFNB medium (DMEM/F12, Neurobasal, 1 ml B27 50× supplement and optional 5 ng/ml of GDNF to enhance survival of MN cultures) and fixed with 4% PFA one day later.
as §1
For each experiment, 10 distinct randomized image fields were taken using a confocal microscope LSM Zeiss Meta 510. Expression of all markers used for quantifications was gated to GFP positive cells, ES cell-derived spinal MNs. Images were analyzed for the expression of the above stated markers in the context of the ES cell-derived caudal brachial MNs. Each quantification is the result of at least three independent experiments (three independent differentiation experiments). […]

[4] = tested on: differentiating ES cells / ES-MNs; test: Rostro-caudal patterning of differentiating ES cells (Hox / positional marker immunostaining); type: cell-based, mouse
Method: Differentiation of cervical level motor neurons from mouse ES cells was performed as previously described (Wichterle et al., 2002). For differentiation of caudal brachial level MNs from ES cells, ES cells were grown in ES cell medium for two days, dissociated and plated into non-adherent tissue culture dishes using ADFNK medium at a density of 20,000 cells/ml. Medium is changed each day but not on Day 3 and Day 4 of differentiation (three and four days after dissociation of ES cells and plating into differentiation medium, respectively). Addition of any factors to differentiating embryonic bodies (EBs) was performed on Day 3. These included: 1 μg/ml Dickopf-1 Dkk1 (R&D Systems), FGF Receptor Inhibitor (PD173074, 100 nM final concentration), FGFb (Recombinant Human, FTF-basic, 120-17, PeproTech), rhGdf11 (R&D Systems, Cat#1958-GD). GDNF (10 ng/ml, R&D Systems) was supplemented on Day 5 of differentiation in selected cultures.
as §2, §1
For each experiment, 10 distinct randomized image fields were taken using a confocal microscope LSM Zeiss Meta 510. Expression of all markers used for quantifications was gated to GFP positive cells, ES cell-derived spinal MNs. Images were analyzed for the expression of the above stated markers in the context of the ES cell-derived caudal brachial MNs. Each quantification is the result of at least three independent experiments (three independent differentiation experiments).
All experiments were performed with HBG3 ES cell line harboring Hb9-GFP transgene (Wichterle et al., 2002) and key experiments were confirmed using a control MM13 ES cell line. Differentiation of HBG3 ES cell line under RA/Hh conditions into rostral cervical MNs was performed as previously described (Wichterle et al., 2002; Wichterle and Peljto, 2008). For production of cervical MNs, ES cells were plated at 50,000 cells/ml in ADFNK differentiation medium [Advanced D-MEM/F-12 (Invitrogen): Neurobasal medium (Invitrogen) (1:1), 10% Knockout Serum Replacement (Invitrogen), […] L-Glutamine (Invitrogen), 0.1 mM β-mercaptoethanol (Sigma), and Pen/Strep (Invitrogen)]. Medium was completely changed on days 1, 2 and of differentiation. EBs were split 1:4 on day 2 of differentiation and the medium was supplemented with 1 μM all-trans retinoic acid (RA, Sigma) and Hh agonist (0.5 μM SAG, Calbiochem or 1 μM HhAg1.3, (Frank-Kamenetsky et al., 2002)). To generate caudal brachial level MNs from ES cells under FGF/Hh conditions, ES cells were plated into non-adherent tissue culture dishes in ADFNK medium (˜20,000 cells/ml). Embryoid bodies (EBs) were split 1:4 on day 2 of differentiation and the medium was changed on days 1, 2 and 5. Selected cultures were supplemented with the following reagents: 10 nM-1 μM RA, 10 nM-1 μM Hh Agonist, 1 μg/ml recombinant mouse Dickkopf-1 (R&D Systems), 50-100 nM FGF/VEGF Receptor Tyrosine Kinase Inhibitor (PD173074, Calbiochem) (Mohammadi et al., 1998), 100-625 ng/ml recombinant human bFGF (PeproTech), 20 ng/ml recombinant human Gdf11/Bmp11 (R&D Systems), 10 ng/ml recombinant rat GDNF (R&D Systems). […]

| Structure (SMILES) | Expression of Nkx2.2 and Foxa2 (Hnf3β) [1] | Expression of Pax7, Pax6 and Olig2 [1] | HhAg1.3 concentration that efficiently induces cervical MNs (Hb9-GFP ES cells [2]) [µM] | Percentage of Hb9-GFP+ cells with increasing Hh agonist (Hb9-GFP ES cells [3]; 10 nM, 50 nM, 100 nM, 1 μM on day 2, EBs dissociated day 7) | Motor neuron generation at high HhAg1.3 concentrations (Hb9-GFP ES cells [3]; ADFNK medium, >500 nM) | GFP positive MNs, % of all cells (Hb9-GFP ES cells [3]; ADFNK medium, absence or low concentrations of HhAg1.3 (<100 nM) added Day 2, Day 6) | FoxP1+ ES-MNs expressing Lhx1 (ES-MNs; RA (1 μM) on day 5 of differentiation, analysed day 7) [%] | Lhx1+ BrdU- ES-MNs (ES-MNs; RA on day 5, BrdU from day 5 onwards, dissociated day 6) [%] | Hoxc8 expression in ES-MNs, loss after RA ([4]; 10 nM RA on day 3 of differentiation, two independent experiments) [%] | Rostro-caudal positional marker expression / segmental identity ([4]; Example 1, EBs supplemented on Day 3, markers examined two to four days later) | Rostro-caudal identity of MNs after RA ([4]; Example 2, 10 nM-1 μM on day 3, stained day 7) | Rostro-caudal identity (Hoxc8+ ES-MNs) after late RA ([4]; RA on day 4 or 5 of differentiation) |
| --- | --- | --- | --- | --- | --- | --- | --- | --- | --- | --- | --- | --- |
| CNC1CCC(N(Cc2cccc(-c3ccncc3)c2)C(=O)c2sc3ccccc3c2Cl)CC1 (stereo not drawn) [HhAg1.3] | most cells within embryoid bodies expressed the ventral-most markers | not detected | 0.5 to 2 | does not significantly change the percentage of Hb9-GFP^+ cells | failure to generate motor neurons | 8-10% | – | – | – | – | – | – |
| CC1=C(/C=C/C(C)=C/C=C/C(C)=C/C(=O)O)C(C)(C)CCC1 [RA, all-trans retinoic acid, reference compound] | – | – | – | – | – | – | 15 | ~10 | ~10 | induced rostral cervical identity characterized by Hoxa5 expression | specification of Hoxa5^+ rostral cervical MNs; also recorded: generation of Hoxa5^+ cervical MNs lacking expression of more posterior Hox genes | did not change the rostro-caudal positional identity; also recorded: does not result in significant changes in the numbers of Hoxc8^+ ES-MNs |

From patent US8969081B2, “Caudal motor neuron derived from embryonic stem cells under conditions essentially free of any retinoid” (The Trustees of Columbia University in the City of New York, priority 2008, dated 2015)
